Experimental data published in publication PMC7070167, “Cell‐permeable high‐affinity tracers for Gq proteins provide structural insights, reveal distinct binding kinetics and identify small molecule inhibitors” (British Journal of Pharmacology, 2020).
Several values for one entry are separate records, joined by “and”; a condition that tells them apart may be missing. Equal entries are not always repeated. *1 amine or outer side, *2 acyl side, *3 side chain or, on linkers, in order; H or OH if unused. Where a SMILES comes first, the peptide text is derived from it. Bridges are numbered along the chain shown (N, C = ends). [ ]: non-standard residue; d: D form. The star is where a group is joined. Leu(3R-O(AcLeu(3R-OH))) = CC(=O)N[C@H](C(=O)O[C@H](C(C)C)[C@H](N)C(=O)O)[C@H](O)C(C)C; Leu(3R-OH,Nα-propionyl) = CCC(=O)N[C@H](C(=O)*)[C@H](O)C(C)C; X1 = CC(C)[C@@H](O[*:3])[C@H](N[*:1])C(=O)[*:2]; NMeT = CN[C@H](C(=O)O)[C@@H](C)O; dPhLac = O=C(O)[C@H](O)Cc1ccccc1; NMeA = CN[C@@H](C)C(=O)O; NMeDha = C=C(NC)C(=O)O

Key:
[1] = molecular target: T1, Gq proteins (Homo sapiens, UniProt P50148); test: Competition binding at human platelet membrane preparations; details: for Ki / pseudo‐Bmax from pseudohomologous competition: human platelet membranes, 37°C
T1 construct: Native cell membrane preparations from rat brain cortex and human blood platelets; host or cells: human platelets (intact suspension or membrane preparation)
T1 sequence (P50148 1-359): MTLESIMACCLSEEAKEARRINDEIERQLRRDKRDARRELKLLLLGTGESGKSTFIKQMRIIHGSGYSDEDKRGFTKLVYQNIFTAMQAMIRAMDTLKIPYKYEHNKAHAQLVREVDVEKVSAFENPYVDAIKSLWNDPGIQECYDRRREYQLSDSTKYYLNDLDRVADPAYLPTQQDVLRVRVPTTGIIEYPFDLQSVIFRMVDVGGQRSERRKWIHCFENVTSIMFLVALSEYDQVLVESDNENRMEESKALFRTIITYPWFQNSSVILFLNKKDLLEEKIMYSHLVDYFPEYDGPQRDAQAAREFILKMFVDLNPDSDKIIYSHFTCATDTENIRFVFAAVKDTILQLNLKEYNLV
Protocol: Apheresis‐purified human thrombocyte‐plasma concentrates were centrifuged (1,000 g at 4°C for 10 min), and the supernatant was decanted and centrifuged again (at 48,400 g, 4°C, for 60 min). The supernatant was kept and used as platelet‐poor plasma for control experiments; the formed pellet was resuspended in buffer 1 (50‐mM Tris–HCl, 5‐mM EDTA, and 150‐mM NaCl) and centrifuged at 48,400 g, 4°C for 60 min. The supernatant was discarded again and the pellet was resuspended in buffer 2 (5‐mM Tris–HCl and 5‐mM EDTA). The cell suspension was homogenized using an Ultra‐Turrax® (IKA Laborechnik, Staufen, Germany) for 1 min at a speed level of 4, subsequently transferred into cryovials, and stored at −80°C before use (the preparation is stable for several months). For radioligand binding assays, 50 μg of protein per vial was used, determined by the method of Bradford (Bio‐Rad Protein Assay).
(§1) The experiments were performed in 50‐mM Tris–HCl buffer, pH 7.4. The final assay volume of 200 μl contained 5 μl of test compound in DMSO, 50 μl of [^3H]PSB‐15900 or [^3H]PSB‐16254, respectively, in buffer, 5 nM of final concentration, and 100 μl of human platelet membrane preparation (50 μg of protein) or intact human platelets (7.5 × 10^6 cells/vial). Non‐specific binding was determined in the presence of 5‐μM FR. The incubation was started by the addition of membrane preparation and was performed at 37°C for 1 hr with gentle shaking. It was terminated by rapid vacuum filtration through GF/C glass‐fibre filters using a Brandel 24‐well harvester. The filters were rinsed three times with approximately 3 ml each of ice‐cold Tris–HCl buffer, 50 mM, pH 7.4 containing 0.1% Tween 20 and 0.1% BSA, to separate bound from free radioligand. The filters were punched out and transferred to scintillation vials. Luma Safe® scintillation cocktail (2.5 ml) was added, and after 6 hr of incubation, the samples were counted for 1 min each, using a liquid scintillation counter (counting efficiency 53%). Experiments in the presence of GTP were additionally performed after preincubation of the membrane preparation with GTP for 1 hr. pIC50 and pKi values were calculated using equations for one‐site competition as implemented in GraphPad Prism 6.01 (GraphPad Inc., La Jolla, CA, USA).

[2] = molecular target: T1, Gq proteins; test: Competition binding at intact human platelets; details: 37°C
Protocol: Apheresis‐purified human thrombocyte‐plasma concentrates (PRP) were obtained from the blood bank, University of Bonn, in accordance with ethical guidelines, and directly used. For radioligand binding assays, they were diluted with 50‐mM Tris–HCl buffer, pH 7.4, to obtain a concentration of 7.5 × 10^6 platelets/50 μl (corresponding to a 1:10 dilution).
as §1

[3] = pKi, versus [^3H]PSB‐15900 (5 nM)
[4] = pKi, versus [^3H]PSB‐16254 (5 nM)
[5] = versus [^3H]PSB‐15900 (5 nM), read-out: pKi (converted)
[6] = versus [³H]PSB-15900 (5 nM), read-out: Ki

C=C1C(=O)N[C@@H](C)C(=O)N(C)[C@@H](C)C(=O)N[C@@H]([C@H](OC(=O)[C@@H](NC(C)=O)[C@H](O)C(C)C)C(C)C)C(=O)N(C)[C@@H]([C@@H](C)OC)C(=O)O[C@H](C)[C@H](NC(C)=O)C(=O)O[C@H](Cc2ccccc2)C(=O)N1C [YM, YM‐254890] (Ac-T[dPhLac][NMeDha]A[NMeA][Leu(3R-O(AcLeu(3R-OH)))][NMeT](Me); ester 1-C)
Kd [1]: 6.29 ± 0.84 nM
Ki ([1]; Ki, versus both radioligands): 3 to 5 nM
Ki [1, 3]: 5.01 nM
Ki [1, 4]: 6.31 nM
pseudo‐Bmax from pseudohomologous competition ([1]; versus [^3H]PSB‐16254 (5 nM)): 6.61 ± 0.60 pmol·mg^−1 of protein and 6.61 pmol·mg^−1 of protein
Ki [2, 5]: 2.09 nM
Ki [2, 6]: 2.29 ± 0.38 nM

C=C1C(=O)N[C@@H](C)C(=O)N(C)[C@@H](C)C(=O)N[C@@H]([C@H](OC(=O)[C@@H](NC(=O)CC)[C@H](O)C(C)C)C(C)C)C(=O)N(C)[C@@H]([C@@H](C)OC)C(=O)O[C@H](C(C)C)[C@H](NC(C)=O)C(=O)O[C@H](Cc2ccccc2)C(=O)N1C [FR, FR900359] (Ac-[X1][dPhLac][NMeDha]A[NMeA][X1](Leu(3R-OH,Nα-propionyl))[NMeT](Me); ester 1-C)
Kd [1]: 4.1 ± 0.5 nM
Ki ([1]; Ki, versus both radioligands): 3 to 5 nM
Ki ([1]; Ki, versus [³H]PSB-15900 (5 nM), standard 24-well format): 6.91 ± 2.25 nM
Ki [1, 3]: 4.07 nM
Ki [1, 4]: 2.51 nM
Ki ([1]; pKi, versus [³H]PSB-15900 (5 nM), standard 24-well format): 6.76 nM
pseudo‐Bmax from pseudohomologous competition ([1]; versus [^3H]PSB‐15900 (5 nM)): 6.28 ± 1.12 pmol·mg^−1 of protein and 6.28 pmol·mg^−1 of protein
Ki [2, 5]: 2.09 nM
Ki [2, 6]: 2.14 ± 0.87 nM
